Article PMC7079008, “Compactness of Protein Folds Alters Disulfide‐Bond Reducibility by Three Orders of Magnitude: A Comprehensive Kinetic Case Study on the Reduction of Differently Sized Tryptophan Cage Model Proteins” (Chembiochem, 2019)
Where a SMILES comes first, the peptide text is derived from it. Bridges are numbered along the chain shown (N, C = ends).

What was measured:
[1] = Degree of fold by FUV-ECD (CCA+ ensemble deconvolution); type: physicochemical; details: for Degree of the fold by FUV-ECD: T=15 °C, c(protein)=20–30 μM, pH≈7, joint CCA+ deconvolution of 204 T-dependent FUV-ECD spectra; for difference in folded fraction between SS variant and parent: at 4 °C, FUV-ECD ensemble deconvolution
From the text: Circular dichroism (CD) spectroscopy is increasingly recognized as very sensitive indicator of protein conformation,58, 59 relying on a plethora of electronic transitions. The FUV‐ECD spectra of Trp‐cage proteins (e.g., Exenatide, E19, E19_SS) are typically the weighted sums of the C‐ (folded and highly helical) and U‐type (unfolded) base curves (Figure 2 A), as assigned and verified by means of NMR spectroscopy.60, 61 As the temperature increases, the shape of the FUV‐ECD spectra changes: those of the parent proteins—E2, E5, E11, and E19—acquire more and more U‐type characteristics, as they unfold gradually. The temperature‐dependent FUV‐ECD spectra for all four SS bond enforced model peptides were recorded between 5 and 85 °C (in steps of 5 °C, resulting in 17 spectra for each protein; Figure S1 in the Supporting Information). Aside from E2_SS, the SS‐bond‐containing mutants have similar FUV‐ECD spectra to that of their parent proteins at low temperatures. On the other hand, because the SS bond makes the 3D folds of SS variants more rigid, they preserve their C‐type characteristics better and delay unfolding, even at higher temperatures. Once the SS bond is reduced (see below for details), the spectral properties of the SH variants revert to those of the parent proteins. Their 3D‐scaffold compactness decreases as the temperature increases; this is less apparent in the case of E2 and E2_2SH because they both already present an ensemble of dynamic backbone structures at 5 °C.
Ensemble deconvolution62, 63 of the 204 (12×17) ECD spectra, f(λ, T), made the quantitative analysis of the relative abundance of secondary structural elements belonging to each peptide in each state possible because the pure ECD curves were successfully assigned.60, 64, 65, 66 The results in Figure 2 B indicate that 1) the SS bond stabilizes the less folded protein scaffolds more effectively, for example, whereas the difference at 4 °C between the E2 and E2_SS folded fraction is 48 %, the same difference between E5 and E5_SS is 14 %; in the case of E11 and E11_SS, it is only 28 %, and for E19 and E19_SS it is 7 % (Figure 2 D). 2) The ratio of the folded, helical components increases upon going from E2 to E5 and E11; however, the compact α‐helical content of E19_SS, E19_2SH, and E19 is lower than those of E11_SS, E11_2SH, and E11 because the unfolded eight‐residue‐long N‐terminal part elevates the overall backbone dynamics, which destabilizes the compact 3D fold. 3) All four reduced proteins (E2_2SH, E5_2SH, E11_2SH, E19_2SH) have a higher helix content (≈7–15 %) than that of the parent proteins over the entire temperature range. 4) The 3D folds stabilized by SS bonds are less sensitive to temperature (Figure 2 C, D).
ECD: FUV‐ECD spectra were recorded on a Jasco J810 spectrophotometer by using a 1.0 mm path length cuvette with protein concentrations of 20–30 μM. Data accumulation was performed over a range of 185–260 nm, with 0.2 nm step resolution at a scan rate of 50 nm min^−1 with a 1 nm bandwidth. The spectral accumulations were resolved between 5 and 85 °C in steps of 5 °C. The temperature was controlled by using a Peltier‐type heating system. Each spectrum baseline was processed by subtracting the solvent spectrum from that of the protein and the raw ellipticity data were converted into mean residue molar ellipticity units, [Θ]MR.

[2] = SS bond reduction by TCEP monitored by 1H NMR; type: physicochemical; details: 1.7 mM protein, twofold excess of TCEP, 15 °C, pH 7; for TCEP: Elapsed time to steady state / TCEP: k1 / TCEP: t1/2 of reduction: 1H NMR; for TCEP: Conversion rate: 1H NMR Trp Hε1 integrals; for TCEP: k1: parameter estimation; for TCEP: t1/2 of reduction: calculated from k1 (Eq. 12)
From the text: The SS bond reduction by TCEP is a bimolecular nucleophilic substitution (SN2) reaction.37 Thus, both the concentration of the oxidized form of the protein [_SS] and that of the RA contribute to the rate of the reduction. In an ideal case, we should consider only nucleophilic attack of the RA (k 1), but, as we explained previously, in practice, we also have to take into account back oxidation (k 2), which takes place simultaneously, and, in some cases, depending on the size and shape of the protein, precipitation (k 3; Figure 5). The mechanism of reduction, therefore, can be described by Equations (2), (3), (4):(2) SS+RAred→k12SH+RAox (3) 2SH+O2→k2SS (4) 2SH→k3SSprecipitated
By fitting this model to the concentration–time functions determined by means of NMR spectroscopy, k 1, k 2, and k 3 can be determined, and half‐lives can be calculated. We focused on the determination of the reduction rate constants k 1; therefore, sampling was more frequent in the reduction phase (stage I; Figure 5 B). Based on parameter estimation (see the Experimental Section), k 2 and k 3 are very often either negligibly small, or, due to a lack of sufficient data, cannot be confidently estimated. Obtaining key kinetic parameters allowed us to describe and compare the reduction kinetics of the SS‐containing miniproteins under various experimental conditions. Some protocols reported in the literature apply extreme conditions, such as high temperature (e.g., 50–80 °C), to obtain short reduction times; this is clearly unsuitable for maintaining the integrity of the protein, or >20‐fold molar excess of reagent. By performing the reduction of E19_SS (0.8 mM) under such conditions (60 °C with 18‐fold TCEP excess), the reaction seemed almost instantaneous (t 1/2<5 min), but the sample became opalescent and side reactions (e.g., precipitation) were instantly detected. Similarly to most globular proteins, the conformational ensemble of E19_2SH at 60 °C is distinctly different from that of 15 °C; thus presenting many more unfolded states. The folded fraction of E19_2SH is 64 % at 15 °C, whereas it is 41 % at 60 °C, according to FUV‐ECD analysis. Instead of intramolecular reoxidation, undesirable intermolecular reoxidation might occur between particles. […] In principle, the reduction rate can be enhanced at lower T by increasing the TCEP molar ratio (15–20‐fold molar excess); however, this also triggers obscure unwanted processes (Figure S5). Experiments were repeated at different temperatures (15, 25, and 37 °C) with 0.8 mM protein and 18‐fold excess of TCEP (Table 2 and Figure S6). The Arrhenius equation allows the activation energy (E a) of the redox reaction to be derived, resulting in a value of about 44.3 kJ mol^−1. For comparison, the activation energy of thiol–disulfide exchange between methylthiolate and oxidized DTT was calculated to be 62 kJ mol^−1.76 Both FUV‐ECD and NMR spectroscopy derived structural information support the high conformational similarity between E19_SS and E19_2SH; therefore, E a is likely to be used for the redox reaction, rather than for the conformational switch between the two conformational states (Table 1). […] Additional experiments were performed to investigate the effect of the protein/RA ratio as a practical perspective (Figure S7). The above‐described NMR spectroscopy methodology provides high‐resolution information about the reduction mechanism, relative to that of the more rapid NUV‐ECD approach, and thus, details of the reduction of all four −SS− protein models were obtained through NMR spectroscopy.
Monitoring reduction kinetics: Peptide samples were prepared between 0.8 and 1.8 mM in 50 mM NaH2PO4–Na2HPO4 buffer (600 μL, pH 6.95), with 10 % D2O. A 0.1 M solution of NaOH was used to set the pH to 7. […]

Row | Compound | Degree of the fold by FUV-ECD [1] | difference in folded fraction between SS variant and parent [1] | TCEP: Elapsed time to steady state [2] | TCEP: Conversion rate [2] | TCEP: k1 [2] | TCEP: t1/2 of reduction [2]
1 | CC[C@H](C)[C@@H]1NC(=O)[C@H](Cc2ccc(O)cc2)NC(=O)[C@H](CC(C)C)NC(=O)[C@H](CCCNC(=N)N)NC(=O)[C@H](C(C)C)NC(=O)[C@@H](NC(=O)[C@H](CCC(=O)O)NC(=O)[C@H](CCC(=O)O)NC(=O)[C@H](CCC(=O)O)NC(=O)[C@H](CCSC)NC(=O)[C@H](CCC(N)=O)NC(=O)[C@H](CCCCN)NC(=O)[C@H](CO)NC(=O)[C@H](CC(C)C)NC(=O)[C@@H](N)CC(=O)O)CSSC[C@@H](C(=O)O)NC(=O)[C@@H]2CCCN2C(=O)[C@@H]2CCCN2C(=O)[C@@H]2CCCN2C(=O)[C@H](CCCNC(=N)N)NC(=O)CNC(=O)[C@H](CO)NC(=O)[C@H](CO)NC(=O)[C@@H]2CCCN2C(=O)CNC(=O)CNC(=O)[C@H](CC(=O)O)NC(=O)[C@H](CCCCN)NC(=O)[C@H](CC(C)C)NC(=O)[C@H](Cc2c[nH]c3ccccc23)NC(=O)[C@H](CCC(N)=O)NC1=O [E11_SS] (H-DLSKQMEEECVRLYIQWLKDGGPSSGRPPPC-OH; disulfide 10-31) | 96.0% | 28% | ≈5–6 h | 94% | 0.0613 M⁻¹ s⁻¹ | 67 min
2 | CC[C@H](C)[C@@H]1NC(=O)[C@H](Cc2ccc(O)cc2)NC(=O)[C@H](CC(C)C)NC(=O)[C@H](CCCNC(=N)N)NC(=O)[C@H](C(C)C)NC(=O)[C@@H](NC(=O)[C@H](CCC(=O)O)NC(=O)[C@H](CCC(=O)O)NC(=O)[C@@H](N)CCC(=O)O)CSSC[C@@H](C(=O)O)NC(=O)[C@@H]2CCCN2C(=O)[C@@H]2CCCN2C(=O)[C@@H]2CCCN2C(=O)[C@H](CCCNC(=N)N)NC(=O)CNC(=O)[C@H](CO)NC(=O)[C@H](CO)NC(=O)[C@@H]2CCCN2C(=O)CNC(=O)CNC(=O)[C@H](CC(=O)O)NC(=O)[C@H](CCCCN)NC(=O)[C@H](CC(C)C)NC(=O)[C@H](Cc2c[nH]c3ccccc23)NC(=O)[C@H](CCC(N)=O)NC1=O [E5_SS] (H-EEECVRLYIQWLKDGGPSSGRPPPC-OH; disulfide 4-25) | 63.4% | 14% | ≈1 h | 93% | 0.308 M⁻¹ s⁻¹ | 14 min
3 | CC[C@H](C)[C@@H]1NC(=O)[C@H](Cc2ccc(O)cc2)NC(=O)[C@H](CC(C)C)NC(=O)[C@H](CCCNC(=N)N)NC(=O)[C@H](C(C)C)NC(=O)[C@@H](N)CSSC[C@@H](C(=O)O)NC(=O)[C@@H]2CCCN2C(=O)[C@@H]2CCCN2C(=O)[C@@H]2CCCN2C(=O)[C@H](CCCNC(=N)N)NC(=O)CNC(=O)[C@H](CO)NC(=O)[C@H](CO)NC(=O)[C@@H]2CCCN2C(=O)CNC(=O)CNC(=O)[C@H](CC(=O)O)NC(=O)[C@H](CCCCN)NC(=O)[C@H](CC(C)C)NC(=O)[C@H](Cc2c[nH]c3ccccc23)NC(=O)[C@H](CCC(N)=O)NC1=O [E2_SS] (H-CVRLYIQWLKDGGPSSGRPPPC-OH; disulfide 1-22) | 51.8% | 48% | <5 min | 100% |  | 
